Laboratory results taken from patent USRE47689E1, “Compounds for treating spinal muscular atrophy” (PTC Therapeutics, Inc., priority 2011, dated 2019).
Structures can show the parent of a compound that is named as a salt. Where two headings read alike, the source gives them in different places.

Assays:
[1] = test system: Smn protein; assay: Smn protein assay in cultured cells (SMN HTRF); format: cell-based, human; details: 48 hours; for maximum fold (Fold) increase of Smn protein: SMA patient fibroblast cells, 7-point concentration data, fold increase relative to vehicle control (SMN HTRF); for EC1.5x (concentration giving 1.5-fold Smn protein increase): SMA Type 1 patient fibroblast cells (GM03813), 7-point concentration curve, SMN HTRF, concentration producing 1.5 times Smn protein vs DMSO vehicle control, read-out: EC1.5x for Smn protein expression
How it was run: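 Lysates in RIPA with protease inhibitors are incubated overnight at room temperature with HTRF anti-SMN antibodies. EC1.5x is derived from fold increase in ΔF over vehicle.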

[2] = test system: SMN2 minigene (full length SMN2 minigene mRNA containing SMN2 exon 7); assay: SMN2 minigene mRNA splicing RT-qPCR assay in cultured cells; format: cell-based, human; details: Homo sapiens, HEK293-H, read-out: EC1.5x for production of full length SMN2 mRNA
How it was run: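 HEK293H cells stably carrying the SMN2-A minigene treated 24 h at 37° C with compound (DMSO, 200× stock), then lysed. Multiplex RT-qPCR (SMN primers 0.4 μM final; 40 cycles) measures full-length exon 7-containing minigene mRNA, normalized to GAPDH and to vehicle; EC1.5x derived and binned by stars.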

[3] = HEK293H cells stably transfected with SMN2-A minigene, 24 hours, 7-point concentration curve, 1.5-fold relative to vehicle-treated cells

melting point	Compound	maximum fold (Fold) increase of Smn protein [1]	EC (1.5-fold) [2, 3] [µM]	EC1.5x (concentration giving 1.5-fold Smn protein increase) [1] [nM]	EC (1.5-fold) ([2]; 24 h) [µM]
253 to 263 °C	CCc1ccn2cc(-c3cc4ccc(N5CCNCC5)cc4oc3=O)nc2c1 [Compound 287, 3-(7-ethylimidazo[1,2-a]pyridin-2-yl)-7-(piperazin-1-yl)-2H-chromen-2-one]	* (maximum fold increase of ≤1.2)	0.3 to 1		
184 to 186 °C	CCNCCCc1ccc2cc(-c3cn4cc(C)nc(C)c4n3)c(=O)oc2c1 [Compound 926, 3-(6,8-dimethylimidazo[1,2-a]pyrazin-2-yl)-7-[3-(ethylamino)propyl]-2H-chromen-2-one]	**** (fold increase between >1.5 and ≤1.65)	< 0.1	< 300	
251 to 253 °C	Cc1cn2cc(-c3cc4ccc(OCCN(C)C)cc4oc3=O)nc2c(C)n1 [Cpd 876, 7-[2-(dimethylamino)ethoxy]-3-(6,8-dimethylimidazo[1,2-a]pyrazin-2-yl)-2H-chromen-2-one]	**** (fold increase between >1.5 and ≤1.65)	< 0.1	< 300	
271 to 275 °C	Cc1ccn2cc(-c3cc4ccc(O[C@@H]5CCNC5)cc4oc3=O)nc2c1 (as salt: hydrochloride) [Compound 323, 3-(7-methylimidazo[1,2-a]pyridin-2-yl)-7-[(3R)-pyirolidin-3-yloxy]-2H-chromen-2-one hydrochloride (1:2)]				
193 to 196 °C	O=c1oc2cc(CN3CCC(O)CC3)ccc2cc1-c1nc2c(Cl)cccc2s1 [Compound 273, 3-(4-chloro-1,3-benzothiazol-2-yl)-7-[(4-hydroxypiperidin-1-yl)methyl]-2H-chromen-2-one]		1 to 3		
195 to 198 °C	CCN1CC[C@@H](Oc2ccc3cc(-c4nc5ccccc5s4)c(=O)oc3c2)C1 [Compound 127, 3-(1,3-benzothiazol-2-yl)-7-{[(3R)-1-ethylpyrrolidin-3-yl]oxy}-2H-chromen-2-one]		1 to 3		
250 °C (dec.)	O=c1oc2cc(N3CCNCC3)ccc2cc1-c1nc2ccccc2s1 (as salt: hydrochloride) [Cpd 4, 3-(1,3-benzothiazol-2-yl)-7-(piperazin-1-yl)-2H-chromen-2-one hydrochloride]				
238 to 248 °C	O=C(Nc1ccccc1)c1cc2ccc(N3CCNCC3)cc2oc1=O (as salt: trifluoroacetate) [Cpd 3, 2-oxo-N-phenyl-7-(piperazin-1-yl)-2H-chromene-3-carboxamide trifluoroacetate]				
290 °C (dec.)	O=c1oc2cc(N3CCNCC3)ccc2cc1-c1nc2c(Cl)cccc2s1 (as salt: hydrochloride) [Cpd 5, 3-(4-chloro-1,3-benzothiazol-2-yl)-7-(piperazin-1-yl)-2H-chromen-2-one hydrochloride]				
152 to 159 °C	CN1CCN(c2ccc3cc(-c4ccn(-c5ccccc5)n4)c(=O)oc3c2)CC1 [Cpd 74, 7-(4-methylpiperazin-1-yl)-3-(1-phenyl-1H-pyrazol-3-yl)-2H-chromen-2-one]		3 to 30		
220 to 223 °C	Cc1cn2cc(-c3cc4ccc(N5CCN[C@H](C)C5)cc4oc3=O)cc2cn1 [Compound 637, 7-[(3R)-3-methylpiperazin-1-yl]-3-(3-methylpyrrolo[1,2-a]pyrazin-7-yl)-2H-chromen-2-one]		< 0.1		
> 300 °C	O=c1oc2cc(N3C[C@@H]4C[C@H]3CN4)ccc2cc1-c1cn2cccnc2n1 (as salt: hydrochloride) [Compound 129, 7-[(1S,4S)-2,5-diazabicyclo[2.2.1]hept-2-yl]-3-(imidazo[1,2a]pyrimidin-2-yl)-2H-chromen-2-one hydrochloride (1:3)]				

The remaining lines, values behind:

Compound	melting point	maximum fold (Fold) increase of Smn protein [1]	EC (1.5-fold) [2, 3] [µM]	EC1.5x (concentration giving 1.5-fold Smn protein increase) [1] [nM]	EC (1.5-fold) ([2]; 24 h) [µM]
Cn1ccc(-c2cc3ccc(N4CCNCC4)cc3oc2=O)n1 [Cpd 38, 3-(1-methyl-1H-pyrazol-3-yl)-7-(piperazin-1-yl)-2H-chromen-2-one]	224 to 228 °C				1 to 3
Cl.O=c1oc2cc(N3CCNCC3)ccc2cc1-c1nc2cccc(C(F)(F)F)c2o1	297 to 307 °C				
O=c1oc2cc(N3CCNCC3)ccc2cc1Nc1cccnc1 [Compound 66, 7-(piperazin-1-yl)-3-(pyridin-3-ylamino)-2H-chromen-2-one]	172 to 175 °C				3 to 30
Cc1cccc2oc(-c3cc4ccc(N5CCN(C)CC5)cc4oc3=O)nc12 [Compound 21, 3-(4-methyl-1,3-benzoxazol-2-yl)-7-(4-methylpiperazin-1-yl)-2H-chromen-2-one]	217 to 219 °C		3 to 30		
Cc1cn2cc(-c3cc4ccc(C5=CCNCC5)cc4oc3=O)nc2c(C)n1	205 to 211 °C				
CN(C)C1CCN(c2ccc3cc(-c4nc5ccccc5o4)c(=O)oc3c2)C1 (centres unmarked) [Compound 48, 3-(1,3-benzoxazol-2-yl)-7-[3-(dimethylamino)pyrrolidin-1-yl]-2H-chromen-2-one]	222 to 224 °C		1 to 3		
O=c1oc2cc(OC3CCNC3)ccc2cc1-c1cn2cccnc2n1 (stereo in doubt) (as salt: hydrochloride) [Cpd 321, 3-(imidazo[1,2-a]pyrimidin-2-yl)-7-[(3R)-pyrrolidin-3-yloxy]-2H-chromen-2-one hydrochloride (1:2)]	240 to 250 °C				
O=c1oc2cc(N3CCNCC3)ccc2cc1-c1ccc(Cl)cn1 [Compound 113, 3-(5-chloropyridin-2-yl)-7-(piperazin-1-yl)-2H-chromen-2-one]	180 to 182 °C				3 to 30
CN1CCN(c2ccc3cc(-c4cccc(C(F)(F)F)c4)c(=O)oc3c2)CC1 [Compound 11, 7-(4-methylpiperazin-1-yl)-3-[3-(trifluoromethyl)phenyl]-2H-chromen-2-one]	150 to 156 °C		3 to 30		
COc1cccc(-c2cc3ccc(N4CCNCC4)cc3oc2=O)c1 [Compound 77, 3-(3-methoxyphenyl)-7-(piperazin-1-yl)-2H-chromen-2-one]	127 to 130 °C		3 to 30		
Cc1cccn2cc(-c3cc4ccc(N5CCN(CCO)CC5)cc4oc3=O)nc12 [Compound 102, 7-[4-(2-hydroxyethyl)piperazin-1-yl]-3-(8-methylimidazo[1,2-a]pyridin-2-yl)-2H-chromen-2-one]	210 to 212 °C		1 to 3		
O=c1oc2cc(N3CCNCC3)ccc2cc1Nc1ncccn1 [Compound 33, 7-(piperazin-1-yl)-3-(pyrimidin-2-ylamino)-2H-chromen-2-one]	193 to 195 °C				3 to 30
O=c1oc2cc(OC3CCNCC3)ccc2cc1-c1nc2ccccc2s1 [Compound 46, 3-(1,3-benzothiazol-2-yl)-7-(piperidin-4-yloxy)-2H-chromen-2-one]	220 to 226 °C		0.3 to 1		
O=c1oc2cc(N3CCNCC3)ccc2cc1Nc1ccccn1 [Cpd 32, 7-(piperazin-1-yl)-3-(pyridin-2-ylamino)-2H-chromen-2-one]	191 to 194 °C				3 to 30
Cc1cn2cc(-c3cc4ccc(N5CCN(CCO)[C@@H](C)C5)cc4oc3=O)nc2c(C)n1 [Compound 888, 3-(6,8-dimethylimidazo[1,2-a]pyrazin-2-yl)-7-[(3S)-4-(2-hydroxyethyl)-3-methylpiperazin-1-yl]-2H-chromen-2-one]		***** (fold increase >1.65)	< 0.1	< 300	
Cc1cccn2cc(-c3cc4ccc(N5CCNCC5)cc4oc3=O)nc12 [Compound 44, 3-(8-methylimidazo[1,2-a]pyridin-2-yl)-7-(piperazin-1-yl)-2H-chromen-2-one]	190 to 193 °C		0.3 to 1		
Cc1cn2cc(-c3cc4ccc(N5CCN[C@@H](C)C5)cc4oc3=O)cc(F)c2n1 [Compound 984, 3-(8-fluoro-2-methylimidazo[1,2-a]pyridin-6-yl)-7-[(3S)-3-methylpiperazin-1-yl]-2H-chromen-2-one]		***** (fold increase >1.65)	< 0.1	< 300	
Cc1cn2cc(-c3cc4ccc(N5CCC(CNC(C)C)CC5)cc4oc3=O)cc2c(C)n1 [Compound 790, 3-(1,3-dimethylpyrrolo[1,2-a]pyrazin-7-yl)-7-{4-[(propan-2-ylamino)methyl]piperidin-1-yl}-2H-chromen-2-one]		** (fold increase between >1.2 and ≤1.35)	0.3 to 1		
Cl.O=c1oc2cc(N3CCNCC3)ccc2cc1-c1nc2c(C(F)(F)F)cccc2o1	339 to 341 °C				
O=c1oc2cc(N3C[C@@H]4C[C@H]3CN4)ccc2cc1-c1cn2cccnc2n1 [Compound 129, 7-[(1S,4S)-2,5-diazabicyclo[2.2.1]hept-2-yl]-3-(imidazo[1,2a]pyrimidin-2-yl)-2H-chromen-2-one hydrochloride (1:3)]		** (fold increase between >1.2 and ≤1.35)	0.3 to 1		
